Entries after “also recorded” stand apart in the source; their conditions may differ.

Assay [1] concerns parenchymal arterioles (PA). Description: Pressurized arteriograph: vascular reactivity and structure of PA from female SHR. The assay is classed as in vivo, rat. The procedure:
A separate group of SHR-F was used to determine if relaxin crosses the BBB by treating with relaxin (4 μg/hr) for 14 days and measuring relaxin concentration in cerebrospinal fluid (CSF) and serum (SHR-F-Rln-CSF, n=4). For the osmotic pump implant, animals were anesthetized with 3% isoflurane and minipumps implanted subcutaneously in the back of the neck. All animals received post-surgical analgesia (buprenorphine, 50 μg/kg, s.c.). Relaxin infusion was continuous for 14 days until animals were euthanized for isolated vessel experiments and tissue collection.
After collecting trunk blood, the brain was quickly removed and placed in cold physiological salt solution (PSS). PA between the M1 and M2 region of the MCA territory and the MCA from the same animals were carefully isolated from WKY-F, SHR-F, and SHR-F-Rln groups and mounted on glass cannulas. PA were identified as branches off the MCA that penetrated into the brain tissue, as previously described (han, S. L., and Cipolla, M. J. (2011) Relaxin causes selective outward remodeling of brain parenchymal arterioles via activation of peroxisome proliferator-activated receptor-gamma. FASEB J 25, 3229-3239). […] The proximal cannula was connected to an in-line pressure transducer and a servo-null pressure control system (Living Systems Instrumentation, Burlington, Vt., USA) that allowed intravascular pressure to be maintained at a set pressure or changed at a variable rate. The distal cannula was closed during the experiment to avoid flow-mediated responses. Temperature and pH were continuously measured and maintained at 37.0±0.5° C. and 7.40±0.05, respectively. Measurements of inner diameter (ID) and wall thickness (WT) were made via video microscopy (Living Systems Instrumentation, Burlington, Vt.).
PA and MCA were equilibrated for 1 hour, after which myogenic activity was determined by stepwise increases in pressure from 40 to 100 mmHg for PA or 50 to 175 mmHg for MCA. ID and WT were measured at each pressure once stable. Endothelium-dependent dilation was studied by adding NS309 (10^−8-10^−5 M), an activator of small- and intermediate-conductance calcium-activated potassium channels (SKCa, IKCa). NS309 was washed out of the bath and a single concentration of the nitric oxide synthase (NOS) inhibitor L-nitro-n-arginine (L-NNA, 10^−4 M) added to the bath. Constriction to NOS inhibition was used as an additional indicator of endothelial function. In the presence of L-NNA, sodium nitroprusside (SNP, 10^−8-10^−5 M) was added to the bath to assess endothelium-independent vasodilation. To obtain structural measurements, ID and WT were recorded at pressures between 5 to 200 mmHg for PA or 5 to 175 mmHg for MCA in zero-calcium PSS containing ethylene glycol tetra-acetic acid (EGTA) and outer diameter (OD) and distensibility calculated.
Percent tone was calculated as percent decrease in ID from the passive diameter at each intravascular pressure: [1−(IDactive/IDpassive)]×100. Percent reactivity for vasodilators was calculated as ((IDdose−IDstart)/(IDpassive−IDstart))×100. Percent constriction for vasoconstrictor was calculated as (1−(IDdose/IDstart))×100. OD was calculated from measured ID and WT: ID+2WT. Distensibility at a given pressure was calculated as (IDpassive−IDoriginal)/(IDoriginal)×100, where IDoriginal is defined as passive inner diameter determined at lowest pressure (5 mmHg). Data from qPCR study were analyzed using the −2^ΔΔCT method, as described previously (Livak, K. J., and Schmittgen, T. D. (2001) Analysis of relative gene expression data using real-time quantitative PCR and the 2(−Delta Delta C(T)) Method. Methods 25, 402-408). Data were removed when the Ct values of technical replicates differed by more than 0.5.

For the next assay, the system named is brain capillaries. Description: Brain capillary density (von Willebrand factor immunohistochemistry, capillary counting) in SHR. The assay is classed as in vivo, rat. Conditions: relaxin-treated SHR vs WKY and untreated SHR.
The mark [2] stands for this setting: SHR-F-Rln vs untreated SHR-F, listed as Relaxin.

As to relaxin, in assay [1] (NS309 10^−6 M, vs 39±11% in SHR-F, p=0.058), the “Reactivity of PA to NS309 (inner diameter increased by)” value was found to be 67±8%. For the same substance, the PA inner diameter in assay [1] (SHR treated with human relaxin-2 4 μg/hr 14 days, untreated groups 58±3 and 49±3, p<0.05) is listed as 56±4 μm. The substance further registered a PA distensibility in assay [1] (SHR, relaxin 4 μg/hr 14 days, vs 10±2% in SHR-F, p<0.05) of 34±2%. In assay [1] (SHR-F-Rln vs untreated SHR-F), the “Myogenic reactivity (active ID) of PA” value is recorded as “did not affect”, the “Myogenic tone (percent tone) of PA” value is listed as “did not affect”, the “Passive ID of PA” value was “increases the size; also recorded: increased” and the “Passive OD of PA” value is “increased”. Further, the “Passive distensibility of PA” value in assay [1] (SHR-F-Rln vs untreated SHR-F) is on record as “increased”. In assay [1] (setting [2]), the “Myogenic tone (percent tone) of PA” value is “without affecting”, the “Passive ID of PA” value is “increased”, the “Passive distensibility of PA” value is recorded as “big effect; also recorded: increased” and the “Reactivity of PA to the SKCa/IKCa activator NS309” value is given as “tended to increase; also recorded: increased”. In assay [1] (at 5 mmHg, vs 44±2 μm in SHR-F), the “Passive ID of PA” value amounted to 42±3 μm. In assay [1] (hypertensive rats, relaxin alone), the “Kind of structural remodeling of PA” value is “outward eutrophic remodeling”. In addition, in the assay with brain capillaries, the “Number of capillaries in the brain (capillary density)” value is “significant increase”.

Values taken from US9393288B2, “Methods of treating diseases associated with PPARγ” (The University of Vermont and State Agricultural College, priority 2012, dated 2016).
